Where two headings read alike, the source gives them in different places.
Columns and labels:
Format in all cases: cell-based
S. epidermidis [1] = experiment: Shaking biofilm model (200 rpm), safranine staining; details: Staphylococcus epidermidis, read-out: Shaking biofilm model % Remaining
Protocol: (§1) According to the static biofilm model, a given thiophenone 200 μmol/L was dissolved in 500 μl absolute ethanol and applied to wells of a standard 24 well microtiter plate. The ethanol was evaporated from the wells in a laminar air sterile work bench at room temperature so as to leave a coating of the thiophenone in the well. A sample of bacteria was then added to the well and incubated for a given period of time. After incubation, the percentage of bacteria remaining was assessed by safranine staining of the biofilm. Bound safranine was released by acetic acid and optical density was measured in Synergy HT Multi-Detection Microplate Reader and compared to a control.
According to the shaking biofilm model, the microtiter plates were shaken (200 rpm) in a Minitron Incubator Shaker during biofilm formation.

V. harveyi [2] = experiment: Planktonic growth in Low Binding Plates, OD 600 nm; details: for V. harveyi planktonic bacteria reduction: 100 μM; for Effect on V. harveyi planktonic growth: in words
Protocol: (§2) Planktonic growth was determined in “Low Binding Plates” in which the bacteria form minimal amounts of biofilm The quantity is determined by optical density measurements at 600 nm.

V. harveyi [3] = experiment: Biofilm formation on peggs, Calgary method; details: for Effect on V. harveyi biofilm: in words
Protocol: (§3) Biofilm formation was measured in static cultures in wells of microtiter plates for S. epidermidis, or on “peggs” according to the Calgary method (The Calgary biofilm devices: New technology for rapid determination of antibiotic susceptibilities of bacterial biofilms. Ceri et al. J Clin Microbiol 1999:37:1771-1776) for V. harveyi. In both cases the safranin staining method was applied and optical density was measured at 530 nm for quantification of biofilm mass.

S. epidermidis [4] = experiment: Static biofilm model, safranine staining; details: 6 h incubation, thiophenone 200 μmol/L coating
Protocol: as §1

S. epidermidis [5] = experiment: Planktonic growth in Low Binding Plates, OD 600 nm
Protocol: as §2

S. epidermidis [6] = experiment: Static biofilm model on coated glass vials; details: incubation time 5 h, coating on glass vial
Protocol: The materials of Example 3 were tested in a static biofilm model as follows.
Triplicate samples of a coating composition were applied to a glass vial in accordance with Table 2 set out below where each vial is given a number. Vials 1 to 12 are each loaded with 13 mg of the indicated material, followed by the addition of 1.0 mL dichloromethane. The dichloromethane was slowly evaporated under atmospheric pressure to leave a coating on the internal walls of the receptacles. Vials 13 to 18 were each loaded by adding 10 mg of the indicated material pre-dissolved in 10 mL dichloromethane. These vials were heated in an oven at 125° C. for 24 hours. To remove any residues of the dichloromethane solvent, all vials were dried at high vacuum (0.5 mmHg) for 2 hours at room temperature.
The biofilm was assessed as described in Example 2.
It is possible in the example of the copolymer of C and D that bacteria are killed in addition to the inhibition of biofilm formation. Similar results were obtained in a static biofilm model where S. epidermis bacteria were incubated over a time period of 5 hours.

marine bacteria [7] = experiment: Coated stainless steel, total counts of desorbed bacteria by epifluorescence microscopy; details: 14 days at 20° C., median values vs no coating
Protocol: (§4) Biological testing of coated stainless steel substrates were performed in a static cultures of marine bacteria. The biofilm prevention efficiencies of the coatings were recorded as a) total enumeration of bacteria attached on the steel surfaces and b) most-probable number (MPN) viability testing of attached bacteria. The nature of the thiophenes (expecting to inhibit biofilm generation without being toxic to the bacteria) should account for inhibition of both total counts and viability counts when thiophene-coated surfaces were compared to non-treated controls.
(§5) Three samples of stainless steel substrates were prepared as described above, each of these in triplicate. […]
(§6) At the end of the experimental period (14 days) the steel surfaces were removed from the media and carefully washed in sterile and particle-free (filtered through […] sterile filters) seawater. […] Desorbed concentrations of bacteria were recorded by epifluorescence microscopy and by MPN-counts in MB medium.
(§7) For epifluorescence microscopy 10 ml desorbed samples were stained with 2 μg 3′5-diamino phenylindol (DAPI) and incubated for 5-10 minutes. The stained samples were filtered through 0.2 μm black polycarbonate filters and analysed in a fluorescence microscope at 1250× magnification. […] The plates were incubated at 20° C. for 5 days and positive growth recorded as turbidity in the wells. […]

marine bacteria [8] = experiment: Coated stainless steel, MPN viable counts of desorbed bacteria; details: 14 days at 20° C., median values vs no coating
Protocol: as §4, §5, §6, §7

S. epidermidis [9] = experiment: Biofilm formation in static cultures in wells of microtiter plates
Protocol: as §3

[10] = S. epidermidis, 20 h incubation

O=C1C=C/C(=C(/Br)c2ccccc2)S1 [Thio112, (Z)-5-(bromo(phenyl)methylene) thiophen-2(5H)-one]
activity at 200 µM (S. epidermidis [1]; S. epidermidis, 6 h incubation): 63% | activity at 200 µM (S. epidermidis [1]; [10]): 59%

O=C(O)CCC(=O)OCC1=C/C(=C/Br)SC1=O
V. harveyi planktonic bacteria reduction (V. harveyi [2]): 18% | V. harveyi biofilm reduction (V. harveyi [3]; 5 μM): 17% | V. harveyi biofilm reduction (V. harveyi [3]; 50 μM): 70% | V. harveyi biofilm reduction (V. harveyi [3]; 100 μM): 85%

O=C1C=C/C(=C\Br)S1 [Thio102, (E)-5-(bromomethylene) thiophen-2(5H)-one]
activity at 200 µM (S. epidermidis [1]; S. epidermidis, 6 h incubation): 91% | activity at 200 µM (S. epidermidis [1]; [10]): 103% | Static biofilm model % Remaining (S. epidermidis [4]): 95%

O=C1C=C/C(=C/C(Br)Br)S1 [Thio107, (Z)-5-(2,2-dibromoethylidene) thiophen-2(5H)-one]
activity at 200 µM (S. epidermidis [1]; S. epidermidis, 6 h incubation): 77% | activity at 200 µM (S. epidermidis [1]; [10]): 93%

COc1ccc(CC2(CO)C=CC(=O)S2)s1 (stereo not drawn) [Thi401, 5-(hydroxymethyl)-5-((5-methoxythiophen-2-yl)methyl)thiophen-2(5H)-one]
activity at 200 µM (S. epidermidis [1]; S. epidermidis, 6 h incubation): 80% | activity at 200 µM (S. epidermidis [1]; [10]): 94% | Static biofilm model % Remaining (S. epidermidis [4]): 51%

N#CS/C=C1/C=CC(=O)S1
V. harveyi planktonic reduction (V. harveyi [2]; 25 μM): 50% | S. epidermis planktonic growth reduction (S. epidermidis [5]; concentrations from 25 μM): 70% | V. harveyi biofilm reduction (V. harveyi [3]; 25 μM): 90%

O=C1C=C/C(=C/c2ccc(-c3cccs3)s2)S1 [Thio306, (Z)-5-(2,2′-bithiophen-5-ylmethylene) thiophen-2(5H)-one]
Static biofilm model % Remaining (S. epidermidis [4]): 67%

O=C1SC(=C(Br)Br)C=C1Br [Thio108, 3-bromo-5-(dibromomethylene)thiophen-2(5H)-one]
activity at 200 µM (S. epidermidis [1]; S. epidermidis, 6 h incubation): 1% | activity at 200 µM (S. epidermidis [1]; [10]): 9%

O=C1C=C/C(=C/c2cccs2)S1 [Thio301, (Z)-5-(thiophen-2-ylmethylene) thiophen-2(5H)-one]
activity at 200 µM (S. epidermidis [1]; S. epidermidis, 6 h incubation): 80% | activity at 200 µM (S. epidermidis [1]; [10]): 98%

O=C1C=C/C(=C(\Br)c2ccccc2)S1 [Thio111, (E)-5-(bromo(phenyl)methylene) thiophen-2-(5H)-one]
activity at 200 µM (S. epidermidis [1]; S. epidermidis, 6 h incubation): 63% | activity at 200 µM (S. epidermidis [1]; [10]): 50%

O=C1C=CC(=C(Br)Br)S1 [Thio106, 5-(dibromomethylene)thiophen-2(5H)-one]
activity at 200 µM (S. epidermidis [1]; S. epidermidis, 6 h incubation): 11% | activity at 200 µM (S. epidermidis [1]; [10]): 27%

COc1sc(/C=C2/C=CC(=O)S2)c(Br)c1Br [Thio305, (Z)-5-((3,4-dibromo-5-methoxythiophen-2-yl)methylene)thiophen-2(5H)-one]
activity at 200 µM (S. epidermidis [1]; S. epidermidis, 6 h incubation): 66% | activity at 200 µM (S. epidermidis [1]; [10]): 101%

COc1ccc(C2CSC(=O)C2)s1 (stereo not drawn)
Effect on V. harveyi planktonic growth (V. harveyi [2]): No effect | Effect on V. harveyi biofilm (V. harveyi [3]): No effect

O=C1C=C/C(=C/Cl)S1 [Thio103, (Z)-5-(chloromethylene) thiophen-2(5H)-one]
activity at 200 µM (S. epidermidis [1]; 6 h): 92% | activity at 200 µM (S. epidermidis [1]; 20 h): 96% | Static biofilm model % Remaining (S. epidermidis [4]): 32%

CC(=O)O/C=C1/C=CC(=O)S1 [Thio104, (Z)-(5-oxothiophen-2(5H)-ylidene)methyl acetate]
activity at 200 µM (S. epidermidis [1]; 6 h): 106% | activity at 200 µM (S. epidermidis [1]; 20 h): 103% | Static biofilm model % Remaining (S. epidermidis [4]): 34%

O=C1S/C(=C\Br)C=C1Br [Thio105, (Z)-3-bromo-5-(bromomethylene)thiophen-2(5H)-one]
activity at 200 µM (S. epidermidis [1]; S. epidermidis, 6 h incubation): 20% | activity at 200 µM (S. epidermidis [1]; [10]): 18%

CCO[Si](CCCNC(=O)OCC1=C/C(=C/Br)SC1=O)(OCC)OCC [Compound F, (Z)-(5-bromomethylene-2-oxo-2,5-dihydrothiopen-3-yl)methyl 3-(triethoxysilyl)propylcarbamate]
Static biofilm model % Remaining (S. epidermidis [6]): 45% | Inhibition of biofilm attachment (total counts) (marine bacteria [7]): ~80% | Inhibition of viable attached bacteria (marine bacteria [8]): > 99%

CCN(/C=C1/C=CC(=O)S1)CC
Effect on V. harveyi planktonic growth (V. harveyi [2]): No effect | Effect on V. harveyi biofilm (V. harveyi [3]): No effect

COc1ccc(/C=C2/C=CC(=O)S2)s1 [Thio304, (Z)-5-((5-methoxythiophen-2-yl)methylene)thiophen-2(5H)-one]
activity at 200 µM (S. epidermidis [1]; S. epidermidis, 6 h incubation): 72% | activity at 200 µM (S. epidermidis [1]; [10]): 94%

O=C1S/C(=C\c2ccccc2)C=C1Br [Thio110, (Z)-5-benzylidene-3-bromothiophen-2(5H)-one]
activity at 200 µM (S. epidermidis [1]; S. epidermidis, 6 h incubation): 30% | activity at 200 µM (S. epidermidis [1]; [10]): 27%

O=C1C=C/C(=C/c2ccccc2)S1 [Thio109, (Z)-5-benzylidenethiophen-2(5H)-one]
activity at 200 µM (S. epidermidis [1]; S. epidermidis, 6 h incubation): 98% | activity at 200 µM (S. epidermidis [1]; [10]): 107%

O=C1C=C/C(=C/Oc2ccc([N+](=O)[O-])cc2)S1
Effect on S. epidermis biofilm (S. epidermidis [9]; in words): No effect | Effect on S. epidermis planktonic growth (S. epidermidis [5]; in words): No effect

CCO[Si](CCCNC(=O)OCc1ccccc1)(OCC)OCC [Benzyl 3-(triethoxysilyl)propylcarbamate, reference compound]
Static biofilm model % Remaining (S. epidermidis [6]): 100%

O=C1C=C/C(=C/I)S1
S. epidermis biofilm reduction (S. epidermidis [9]; 50 μM): 50% | S. epidermis biofilm reduction (S. epidermidis [9]; 100 μM): 64% | S. epidermis planktonic bacterial growth reduction (S. epidermidis [5]; 50 μM): 50% | S. epidermis planktonic bacterial growth reduction (S. epidermidis [5]; 100 μM): 63% | V. harveyi biofilm reduction (V. harveyi [3]; 5 μM): 46% | V. harveyi biofilm reduction (V. harveyi [3]; 10 μM): 80% | V. harveyi biofilm reduction (V. harveyi [3]; 15 μM): 95%

O=C1S/C(=C\Br)C=C1c1cccs1 [(Z)-5-(bromomethylene)-3-(thiophen-2-yl)thiophen-2(5H)-one]
V. harveyi planktonic bacteria reduction (V. harveyi [2]): 30%

COc1ccc(C=C(Br)Br)s1 [Thio202, 2-(2,2-dibromovinyl)-5-methoxythiophene]
activity at 200 µM (S. epidermidis [1]; S. epidermidis, 6 h incubation): 94% | activity at 200 µM (S. epidermidis [1]; [10]): 103%

O=Cc1ccc(/C=C2/C=CC(=O)S2)s1 [Thio303, (Z)-5-((5-oxothiophen-2(5H)-ylidene)methyl)thiophene-2-carbaldehyde]
activity at 200 µM (S. epidermidis [1]; S. epidermidis, 6 h incubation): 95% | activity at 200 µM (S. epidermidis [1]; [10]): 91%

COc1ccc(C=O)s1 [Thio201, 5-methoxythiophene-2-carbaldehyde]
activity at 200 µM (S. epidermidis [1]; S. epidermidis, 6 h incubation): 81% | activity at 200 µM (S. epidermidis [1]; [10]): 101% | Static biofilm model % Remaining (S. epidermidis [4]): 56%

O=C1C=C/C(=C/c2ccc(Br)s2)S1 [Thio302, (Z)-5-((5-bromothiophen-2-yl)methylene)thiophen-2(5H)-one]
activity at 200 µM (S. epidermidis [1]; S. epidermidis, 6 h incubation): 98% | activity at 200 µM (S. epidermidis [1]; [10]): 101%

Source: patent US20110250254A1, “ANTIMICROBIAL COMPOSITIONS AND USES” (priority 2008, published 2011)
